Reference: PubChem BioAssay (NCI)
“And” between values parts separate entries of the source, which are not always exact repeats. Equal values may be shown once.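 1) Cells in 96-well plates. 2) Compound, 48 h, 5 concentrations. 3) Linear interpolation between surrounding doses. 4) Unreached endpoint = highest concentration. The concentration for 50% growth inhibition is given as GI50. TGI is the concentration that stops growth completely.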

Test system: MDA-MB-468 breast
Assay: NCI anticancer screen, dose series, 48 h

Compound | GI50 | TGI
CC(=O)c1cc(-c2ccccc2N)n(-c2ccc3c(c2)OCO3)c1C | 50.7 nM | > 72100 nM
Oc1c(Cl)cc(Cl)cc1Sc1cc(Cl)cc(Cl)c1O | 2810 nM and 2590 nM | 8850 nM and 7830 nM
CC(C(=O)O)c1ccc(-c2ccccc2)c(F)c1 (configuration not stated) | > 100000 nM | > 100000 nM
Cc1cnc(Nc2ccc(OCCN3CCCC3)cc2)nc1Nc1cccc(S(=O)(=O)NC(C)(C)C)c1 | 74.1 nM and 483 nM | 792 nM and 3110 nM
C/C(=C(/c1ccc(O)cc1)c1ccc(Cl)cc1)c1ccccc1 | 601 nM | 2020 nM
CC[C@@]12C=CCN3CC[C@]4(c5cc(NC(=O)COc6cc(OCC(=O)Nc7cc8c(cc7OC)N(C)[C@H]7[C@@](O)(C(=O)OC)[C@H](OC(C)=O)[C@]9(CC)C=CCN%10CC[C@]87[C@@H]%109)cc7oc(-c8ccccc8)cc(=O)c67)c(OC)cc5N(C)[C@@H]4[C@](O)(C(=O)OC)[C@H]1OC(C)=O)[C@H]32 | 2250 nM | 8870 nM
CCCCCCNC(=O)n1cc(F)c(=O)[nH]c1=O | 10000 nM | 26300 nM
CC(=O)c1cccc(-c2cccc(-c3ccn(CCN4CCOCC4)n3)c2)c1 | 15200 nM | > 20000 nM
CCN1C(=O)N(CC)C2SC(N/N=C/c3ccc(F)cc3)=NC21 (configuration not stated) | 400 nM | –
CC(C)(C)n1cc(-c2ccnc(NCCCNS(=O)(=O)c3ccc(Br)cc3)c2)c(-c2cccc(O)c2)n1 | 2100 nM | 4800 nM
NC(=O)c1c(NC(=O)c2ccccc2C(F)(F)F)sc2c1CCC(=O)C2 | 2250 nM | 6090 nM
CC12CC=CCC1CCC1C2CCC2(C)C(c3ccc(=O)oc3)CCC12O (configuration not stated) | 276 nM | 858 nM
C[PH+](c1nc2ccccc2nc1[PH+](C)C(C)(C)C)C(C)(C)C.C[PH+](c1nc2ccccc2nc1[PH+](C)C(C)(C)C)C(C)(C)C.[Au+].[Cl-] (configuration not stated) | 24.8 nM | 90.4 nM
COc1ccc([C@@H](O)c2cc(-c3ncnc4cc(N5CCOCC5)ccc34)c(F)cc2Cl)nn1 | 1690 nM | 8260 nM
CC1(C)[C@@H](OC(N)=O)C=C[C@]2(CO)[C@H]3CC[C@]4(C)[C@@H](c5ccc(=O)oc5)[C@@H](Cl)C[C@]4(O)C3=CC[C@@H]12 | 14.9 nM | 67.4 nM
CNCCNc1nc2ccccc2c2c(=O)c3cc(F)ccc3sc12 | 1700 nM | 3460 nM
C[C@]12CC[C@@H](OC(=O)N(CCCl)N=O)C[C@@H]1CC[C@@H]1[C@@H]2CC[C@]2(C)C(=O)CC[C@@H]12 | 867 nM | 12300 nM
COC(=O)[C@H]1[C@H]2C[C@@H]3c4[nH]c5cc(OC)ccc5c4CCN3C[C@H]2C[C@@H](OC(=O)/C=C/c2cc(OC)c(OC)c(OC)c2)[C@@H]1OC | 3270 nM | 11600 nM
CC[C@H](Nc1nc(N)nc(C2CC2)c1C#N)c1nc2cccc(NCc3ccc(C(=O)NO)cc3)c2c(=O)n1-c1ccccc1 | 1730 nM | 4870 nM
Cn1cc(C2=C(c3cn(C)c4cc(N)ccc34)C(=O)NC2=O)c2ccccc21 | 1560 nM | 7970 nM
COc1ccc(NC(=O)n2nc(/C=C\c3ccc(O)c(OC)c3)cc2/C=C\c2ccc(O)c(OC)c2)cc1 | 3550 nM | 21600 nM
CCOC(=O)Nc1nc2cc(OCC)ccc2s1 | 2620 nM | > 100000 nM
CCCCNC(=O)Oc1ccc(/C(=C(/CC)Cc2ccccc2)c2ccc(OCCN3CCCCCC3)cc2)cc1 | 21500 nM | 46900 nM
COc1cc2ncnc3c2cc1OCCCCCN(C)Cc1ccc(Br)cc1N3 | 46.3 nM and 39.3 nM | 400 nM and 453 nM
COc1cc2c(c(OC)c1OC)-c1ccc(O)c(=O)cc1[C@@H](NC(C)=O)CC2 | 4110 nM | 27500 nM
Oc1c(CN2CCCC2)cc(CSCc2ccccc2)c2cccnc12 | 1200 nM | 3240 nM
Clc1ccc2c(c1)C(N1CCNCC1)=Nc1ccccc1O2 | 1220 nM | 2480 nM
COc1cc(/C=C2\CN(C(=O)CCN3CCC(=NO)CC3)C/C(=C\c3cc(OC)c(OC)c(OC)c3)C2=O)cc(OC)c1OC | 342 nM | 1270 nM
COc1ccc(/C=C\c2cc(OC)c(OC)c(OC)c2)c(NS(=O)(=O)c2ccc(Cl)cc2)c1O | 36.7 nM | 15000 nM
